# Assay results as given in the NIST ThermoML archive (doi:10.1016/j.fluid.2008.02.008).
# Numbers after ± are expanded uncertainties.
# How the values were obtained:
# [1] = 298.15 K, 101.33 kPa, Liquid; for mass density: Pycnometric method; for speed of sound: Sing-around technique in a fixed-path interferometer
# [2] = refractive index (Na D-line) (dimensionless); details: 298.15 K; 101.33 kPa; Liquid; Standard Abbe refractometry
Structure (SMILES),mass density [1] [kg/m3],speed of sound [1] [m/s],refractive index [2]
O=C1CCCN1C1CCCCC1 [N-cyclohexylpyrrolidinone],1025.56 ± 1.7,1555.7 ± 2.3,1.4975 ± 0.00082
CN1CCCC1=O [N-methylpyrrolidone],1027.88 ± 1.1,1545 ± 1.5,1.46876 ± 0.00075
C1CCCCC1 [cyclohexane],773.948 ± 0.69,1254.9 ± 0.97,1.42378 ± 0.00072
C1CCCCCCC1 [cyclooctane],830.967 ± 0.82,1387.8 ± 1.4,1.45624 ± 0.00075
CCCCCCCCCC [decane],726.176 ± 0.7,1232.5 ± 1.4,1.4099 ± 0.00075
O [water],–,–,1.3325 ± 0.00075

# Further lines, results first:
mass density [1] [kg/m3],speed of sound [1] [m/s],refractive index [2],Structure (SMILES)
687.817 ± 0.62,1082.6 ± 1,1.38917 ± 0.00073,"CC(C)CC(C)(C)C [2,2,4-trimethylpentane]"
644.43 ± 0.61,999.69 ± 1.3,1.36608 ± 0.00075,"CCC(C)(C)C [2,2-dimethylbutane]"
658.562 ± 1.3,1047.1 ± 3.1,1.37275 ± 0.00094,"CC(C)C(C)C [2,3-dimethylbutane]"
648.614 ± 0.62,1082.6 ± 1.3,1.36893 ± 0.00075,CCCC(C)C [2-methylpentane]
659.806 ± 0.63,1072.1 ± 1.3,1.37399 ± 0.00075,CCC(C)CC [3-methylpentane]
654.961 ± 0.62,1077.6 ± 1.3,1.37237 ± 0.00075,CCCCCC [hexane]
698.638 ± 0.63,1170.4 ± 1.1,1.39538 ± 0.00073,CCCCCCCC [octane]
